The record followed here is patent publication US11497734B2, “Dual inhibitors of TIM-3 and PD-1 pathways” (Aurigene Discovery Technologies Limited, priority 2017, dated 2022).

Structures are written as SMILES.

For one experiment, the target named is T1, PD-L1 (Mus musculus, UniProt Q9EP73).
T1 construct: Fc (Fc chimera); purchased R&D Systems 1019-B7-100
Briefly: Rescue of mouse splenocyte proliferation in the presence of recombinant PD-L1 (CFSE proliferation assay). In kind it is cell-based. To be noted: 100 nM compound; anti-CD3/CD28 stimulated mouse splenocytes + PD-L1; 72 h; read-out: PDL1 (rescue of proliferation @ 100 nM). The method, then: Example 1: Rescue of Mouse Splenocyte Proliferation in the Presence of Recombinant PD-L1/PD-L2
Recombinant mouse PD-L1 (rm-PDL-1, cat no: 1019-B7-100; R&D Systems) were used as the source of PD-L1.
Mouse splenocytes harvested from 6-8 weeks old C57 BL6 mice; RPMI 1640 (GIBCO, Cat #11875); DMEM with high glucose (GIBCO, Cat #D6429); Fetal Bovine Serum [Hyclone, Cat #SH30071.03]; Penicillin (10000 unit/mL)-Streptomycin (10,000 μg/mL) Liquid (GIBCO, Cat #15140-122); MEM Sodium Pyruvate solution 100 mM (100×)), Liquid (GIBCO, Cat #11360); Nonessential amino acid (GIBCO, Cat #11140); L-Glutamine (GIBCO, Cat #25030); Anti-CD3 antibody (eBiosciences—16-0032); Anti-CD28 antibody (eBiosciences—16-0281); ACK lysis buffer (1 mL) (GIBCO, Cat #-A10492); Histopaque (density—1.083 gm/mL) (SIGMA 10831); Trypan blue solution (SIGMA-T8154); 2 mL Norm Ject Luer Lock syringe-(Sigma 2014-12); 40 μm nylon cell strainer (BD FALCON 35230); Hemacytometer (Bright line-SIGMA Z359629); FACS Buffer (PBS/0.1% BSA): Phosphate Buffered Saline (PBS) pH 7.2 (HiMedia TS1006) with 0.1% Bovine Serum Albumin (BSA) (SIGMA A7050) and sodium azide (SIGMA 08591); 5 mM stock solution of CFSE: CFSE stock solution was prepared by diluting lyophilized CFSE with 180 μL of Dimethyl sulfoxide (DMSO C2H6SO, SIGMA-D-5879) and aliquoted in to tubes for further use. Working concentrations were titrated from 10 μM to 1 μM. (eBioscience-650850-85); 0.05% Trypsin and 0.02% EDTA (SIGMA 59417C); 96-well format ELISA plates (Corning CLS3390); BD FACS caliber (E6016); Recombinant mouse B7-H1/PDL1 Fc Chimera, (rm-PD-L1 cat no: 1019-B7-100).
Splenocytes harvested in a 50 mL falcon tube by mashing mouse spleen in a 40 μm cell strainer were further treated with 1 mL ACK lysis buffer for 5 min at room temperature. After washing with 9 mL of RPMI complete media, cells were re-suspended in 3 mL of 1×PBS in a 15 mL tube. 3 mL of Histopaque was added carefully to the bottom of the tube without disturbing overlaying splenocyte suspension. After centrifuging at 800×g for 20 min at room temperature, the opaque layer of splenocytes was collected carefully without disturbing/mixing the layers. Splenocytes were washed twice with cold 1×PBS followed by total cell counting using Trypan Blue exclusion method and used further for cell based assays.
Splenocytes were cultured in RPMI complete media (RPMI+10% fetal bovine serum+1 mM sodium pyruvate+10,000 units/mL penicillin and 10,000 μg/mL streptomycin) and maintained in a CO2 incubator with 5% CO2 at 37° C.
CFSE Proliferation Assay: CFSE is a dye that passively diffuses into cells and hinds to intracellular proteins. 1×10^6 cells/mL of harvested splenocytes were treated with 5 μM of CFSE in pre-warmed 1×PBS/0.1% BSA solution for 10 min at 37° C. Excess CFSE was quenched using 5 volumes of ice-cold culture media to the cells and incubated on ice for 5 min. CFSE labeled splenocytes were further given three washes with ice cold complete RPMI media. CFSE labeled 1×10^5 splenocytes added to wells containing either MDA-MB231 cells (1×10^5 cells cultured in high glucose DMEM medium) or recombinant human PDL-1 (100 ng/mL) and test compounds. Splenocytes were stimulated with anti-mouse CD3 and anti-mouse CD28 antibody (1 μg/mL each), and the culture was further incubated for 72 h at 37° C. with 5% CO2. Cells were harvested and washed thrice with ice cold FACS buffer and % proliferation was analysed by flow cytometry with 488 nm excitation and 521 nm emission filters. Data Compilation, Processing and Inference: […]

A further experiment deals with recombinant human TIM-3. Briefly: Human PBMC IFN-γ release assay in the presence of recombinant TIM-3. Type of experiment: cell-based. The settings on record: 100 nM compound, plate-coated TIM-3 + anti-CD3, anti-CD28, 72 h. The method, then: Vehicle: Milli Q water; RPMI 1640 (GIBCO, Cat #11875); Fetal Bovine Serum [Hyclone, Cat #SH30071.03]; Penicillin (10000 unit/ml)-Streptomycin (10,000 μg/ml) liquid (GIBCO, Cat #15140-122); MEM Sodium Pyruvate solution 100 mM (100×). Liquid (GIBCO, Cat #11360); Nonessential amino acid (GIBCO, Cat #11140); L-Glutamine (GIBCO, Cat #25030); Recombinant human TIM-3 (rhGi24 TIM-3/B7-H5 Fc chimera (R&D systems, cat no: 7126-B7); Anti-h/m Gi24/TIM-3/B7-H5 purified mouse monoclonal IgG2B (R&D systems, cat no: MAB7126); Mouse IgG2B isotype control (R&D Systems cat no: MAB 004); Anti human-CD3 antibody (eBiosciences—16-0039); Anti human-CD28 antibody (eBiosciences—16-0289); Histopaque (density-1.077 gm/ml) (SIGMA 1077); Trypan Blue solution (SIGMA-T8154); Hemacytometer (Bright line-SIGMA Z359629); FACS Buffer containing Phosphate Buffered Saline (PBS) pH 7.2; (HiMedia TS1006) with 0.1% Bovine Serum Albumin (BSA) (SIGMA A7050) and sodium azide (SIGMA 08591); 96-well format ELISA plates (Corning 3599); 96-well format ELISA plates (Corning 3361); BD FACS caliber (E6016); Centrifuge (Eppendorf 5810 R); Human IFN-'γ Duo set ELISA kit (R&D Systems; cat no: DY-285).
Human PBMC IFN-γ Release Assay
96-well cell culture plates were pre-coated with recombinant human TIM-3 (2.5 μg/ml) and anti-human CD3 (2.5 μg/ml), and stored at 4° C. overnight. Anti-human TIM-3 and isotype control antibodies were either coated along with the TIM-3 or incubated for 30 min next day before addition of cells. On the next day, plates were washed with 1× PBS and then incubated with test compounds for 30 min. Isolated PBMC (0.1×10^6 cells/well) and anti-human CD28 antibodies (1 μg/ml) were added to the wells. The culture was further incubated for 72 h at 37° C. with 5% CO2. After 72 h of incubation the cell culture supernatants were collected after brief centrifugation at 200 g×5 min at 4° C. and processed for human IFN-γ measurement by ELISA following manufacturer's protocol (R&D Systems; DY-285).
In brief, 96-well ELISA plates were coated with 100 μl/well of capture antibody in coating buffer and incubated overnight at 4° C. Plates were washed five times with wash buffer and further blocked with 200 μl of 1× assay diluents for 1 hr at RT. Following wash step, 100 μl of cell culture supernatants were added to wells and further incubated for 2 hr at RT. Appropriate standards were also included. After wash step, plate was incubated for one hour with 100 μl/well of detection antibody. The wash step was repeated and the plate was incubated for 30 min with 100 μl/well of Avidin-HRP. The plate was washed four times with wash buffer and subsequently incubated for 15 min with 100 μl/well of substrate solution. 50 μl of stop solution was added to each well and the plate was read at 450 nm using Gen5 ver 2.05. Delta OD values were used for calculating the concentrations. The absorbance values were plotted against the standards and the concentration of IFN-γ was determined using GraphPad Prism software. Each experimental condition was carried out in triplicates.
The percent rescue of IFN-γ release of the selected compounds of present invention are set forth below wherein “A” refers to compounds having more than 70% rescue of IFN-γ release, “B” refers to compounds having rescue of IFN-γ release ranges from 50% to 69.9% and “C” refers to compounds having less than 50% rescue of IFN-γ release.

T1 sequence (Q9EP73 19-238 limits assumed): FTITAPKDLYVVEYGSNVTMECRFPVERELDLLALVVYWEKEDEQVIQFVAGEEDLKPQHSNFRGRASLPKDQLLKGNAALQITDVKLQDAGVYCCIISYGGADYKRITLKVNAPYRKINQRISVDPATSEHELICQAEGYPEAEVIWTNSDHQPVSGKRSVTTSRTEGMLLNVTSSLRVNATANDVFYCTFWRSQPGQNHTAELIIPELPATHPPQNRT

On to `CC(=O)NCCCC[C@H](NC(=O)N[C@H](C(=O)O)C(C)O)c1nc([C@@H](N)CO)no1` (some centres unmarked) [Compound 20], for which the activity at 0.1 µM on PD-L1 amounted to 37%. Besides, the “TIM-3 (rescue of IFN γ release @ 100 nM)” value in the experiment on recombinant human TIM-3 is given as “C (less than 50% rescue of IFN-γ release)”.

As to `CC(O)[C@H](NC(=O)N[C@@H](CC(N)=O)c1nc([C@@H](N)Cc2ccc(O)cc2)no1)C(=O)O` (some centres unmarked) [Compound 21], the activity at 0.1 µM on PD-L1 amounted to 50%. Moreover, the “TIM-3 (rescue of IFN γ release @ 100 nM)” value in the experiment with recombinant human TIM-3 is listed as “C (less than 50% rescue of IFN-γ release)”.

Turning to `CC(O)[C@@H](NC(=O)N[C@@H](CC(N)=O)c1nc([C@@H](N)CO)no1)C(=O)O` (some centres unmarked) [Compound 22], the activity at 0.1 µM on PD-L1 came to 90%. Further, the “TIM-3 (rescue of IFN γ release @ 100 nM)” value in the experiment on recombinant human TIM-3 is “C (less than 50% rescue of IFN-γ release)”.

As to `CC(O)[C@H](NC(=O)N[C@@H](CC(N)=O)c1nc(C2(N)CCCC2)no1)C(=O)O` (some centres unmarked) [Compound 23], at PD-L1, the activity at 0.1 µM amounted to 47%. The “TIM-3 (rescue of IFN γ release @ 100 nM)” value in the experiment with recombinant human TIM-3 was “C (less than 50% rescue of IFN-γ release)”.

Consider `CC(O)[C@H](NC(=O)N[C@@H](CC(N)=O)c1nc([C@@H](O)CO)no1)C(=O)O` (some centres unmarked) [Compound 24], for which the activity at 0.1 µM at PD-L1 was determined as 65%. Moreover, in the experiment on recombinant human TIM-3, the “TIM-3 (rescue of IFN γ release @ 100 nM)” value is “A (more than 70% rescue of IFN-γ release)”.

Regarding `N=C(N)NCCC[C@H](N)c1noc([C@H](CC(N)=O)NC(=O)N[C@@H](CO)C(=O)O)n1` [Compound 25], the activity at 0.1 µM at PD-L1 was 70%. Moreover, the “TIM-3 (rescue of IFN γ release @ 100 nM)” value in the experiment with recombinant human TIM-3 was “A (more than 70% rescue of IFN-γ release)”.

For `CN[C@@H](CO)c1noc([C@@H](N)CC(N)=O)n1` [Compound 26], the activity at 0.1 µM at PD-L1 stood at 53%. In the experiment on recombinant human TIM-3, the “TIM-3 (rescue of IFN γ release @ 100 nM)” value was “B (rescue of IFN-γ release ranges from 50% to 69.9%)”.
